# Paper PMC10879537 (Nature Communications, 2024)
# “And” between values parts separate entries of the source, which are not always exact repeats. Equal entries are not always repeated. Where two headings read alike, the source gives them in different places.
# Experiments:
# GX_P2V [1] = experiment: microbe, parasite or virus in culture; format: cell-based, Guangxi pangolin-CoV (GX_P2V)
# [2] = test system: SARS-CoV-2 pseudotyped virus; experiment: microbe, parasite or virus in culture; format: cell-based
# PEDV strain CV777 = experiment: microbe, parasite or virus in culture; format: cell-based, porcine epidemic diarrhea virus (PEDV)
# [3] = test system: SADS-CoV strain CN/GDWT/2017; experiment: cells; format: cell-based, swine acute diarrhoea syndrome coronavirus (SADS-CoV)
# [4] = test system: SARS-CoV pseudotyped virus; experiment: microbe, parasite or virus in culture; format: cell-based; details: for EC50: read-out: EC50 against SARS-CoV pseudotyped virus
# [5] = test system: MERS-CoV pseudotyped virus; experiment: microbe, parasite or virus in culture; format: cell-based
# GX_P2V [6] = experiment: organism not typed; format: cell-based, Guangxi pangolin-CoV (GX_P2V)
# SARS-CoV-2 trVLP [7] = format: cell-based
# SARS-CoV-2 trVLP [8] = test system: SARS-CoV-2 trVLP
# in vitro [9] = details: African green monkey
# in vitro [10] = details: human, Caco-2
# in vitro [11] = details: human
# SARS-CoV-2 trVLP [12] = experiment: microbe, parasite or virus in culture
# Vero E6 cells = experiment: cells; details: Chlorocebus sabaeus, Vero C1008, 48 h, read-out: Cytoxicity (%)
# [13] = test system: SARS-CoV-2 live virus (SARS-CoV-2/WH-09/human/2020/CHN); experiment: microbe, parasite or virus in culture; format: cell-based
# [14] = Vero C1008, 48 h, read-out: Percentage of Inhibition (%)
# [15] = Vero C1008, read-out: EC50 against GX_P2V
# [16] = Severe acute respiratory syndrome coronavirus 2, read-out: EC50 against SARS-CoV-2 trVLP
compound,measurement,setting,value
"COc1cc2c(cc1OC)[C@@H](Cc1ccc(Oc3cc(C[C@@H]4c5cc(OC)c(OC)cc5CCN4C)ccc3O)cc1)N(C)CC2 [Dauricine, dauricine]",inhibition at 1.09691 µM,GX_P2V [1]; [14],10.1%
same,inhibition at 1.39794 µM,GX_P2V [1]; [14],95.2%
same,inhibition at 1.69897 µM,GX_P2V [1]; [14],100%
same,EC50,"GX_P2V [1]; Vero C1008, read-out: EC50 GX_P2V",15.7 µM
same,EC50,"GX_P2V [1]; Vero C1008, read-out: EC50 against GX_P2V, repeated experiment",13.1 µM
same,EC50,"[2]; Severe acute respiratory syndrome coronavirus 2, read-out: EC50 SARS-CoV-2pseudotypedvirus",6.58 µM
same,Percentage of Inhibition (%),PEDV strain CV777,99.987%
same,EC50,"PEDV strain CV777; Porcine epidemic diarrhea virus, Huh-7, read-out: EC50 against PEDV",1.7 µM
same,Percentage of Inhibition (%),[3],99.922%
same,EC50,"[3]; Huh-7, read-out: EC50 against SADS-CoV",0.84 µM
same,EC50,[4]; Severe acute respiratory syndrome coronavirus,2.63 µM
same,EC50,"[5]; Middle East respiratory syndrome-related coronavirus, Huh-7, read-out: EC50 against MERS-CoV pseudotyped virus",2.13 µM
same,Stage of the viral life cycle affected (time-of-addition),GX_P2V [6],superior inhibitory activity during the entry stage compared with the post-entry stage
same,"Time of addition of anti-GX_P2V activity, Full-time",GX_P2V [6],94.280 and 92.940 and 93.040
same,"Time of addition of anti-GX_P2V activity, Post-entry",GX_P2V [6],24.420 and 36.380 and 19.300
same,inhibition at 6.25 µM,"GX_P2V [6]; Vero C1008, read-out: Inhibition against GX_P2V, full-time treatment",~100%
same,"Time of addition of anti-SARS-CoV-2 trVLPs activity, Entry",SARS-CoV-2 trVLP [7],75.941 and 76.217 and 74.799
same,"Time of addition of anti-SARS-CoV-2 trVLPs activity, Full-time",SARS-CoV-2 trVLP [7],87.622 and 86.812 and 85.889
same,"Time of addition of anti-SARS-CoV-2 trVLPs activity, Post-entry",SARS-CoV-2 trVLP [7],74.686 and 90.971 and 75.807
same,"SI (SARS-CoV-2 trVLP, Caco 2-N)",SARS-CoV-2 trVLP [8]; Caco-2,> 17.61
same,CC50 at 48 h,in vitro [9],> 50 µM
same,CC50 at 48 h,in vitro [10],> 50 µM
same,CC50 at 48 h,in vitro [11],> 25 µM
same,CC50,"in vitro [11]; CC50, cytotoxicity to Huh 7 cells (Fig. 4B, SADS-CoV panel)",> 12.5 µM
same,EC50,"SARS-CoV-2 trVLP [12]; Severe acute respiratory syndrome coronavirus 2, read-out: EC50 SARS-CoV-2 trVLP",2.84 µM
COc1cc2c3cc1Oc1cc(ccc1O)C[C@@H]1c4c(cc(OC)c(O)c4Oc4ccc(cc4)C[C@H]3N(C)CC2)CCN1C [L-curine],inhibition at 0.49485 µM,GX_P2V [1]; [14],81.4%
"COc1cc2c(cc1OC)C(Cc1ccc(O)c(Oc3cc4c(cc3OC)CCN(C)C4Cc3ccc(O)cc3)c1)N(C)CC2 (stereo not drawn) [Liensinine (34), liensinine]",inhibition at 0.193 µM,GX_P2V [1]; [14],93.8%
same,inhibition at 0.495 µM,GX_P2V [1]; [14],84.2%
same,inhibition at 0.78 µM,GX_P2V [1]; [14],68.4%
same,inhibition at 0.796 µM,GX_P2V [1]; [14],74.4%
same,inhibition at 1.097 µM,GX_P2V [1]; [14],87.3%
same,inhibition at 1.398 µM,GX_P2V [1]; [14],100%
same,inhibition at 1.699 µM,GX_P2V [1]; [14],100%
same,EC50,GX_P2V [1]; [15],0.7 µM
same,EC50,SARS-CoV-2 trVLP [12]; [16],3.09 µM
COc1ccc2c(c1O)-c1c(O)c(OC)cc3c1[C@H](C2)[N+](C)(C)CC3 [Magnoflorine],inhibition at 0.79588 µM,GX_P2V [1]; [14],34.7%
same,cytotoxicity at 0.193125 µM,Vero E6 cells,3.29%
same,cytotoxicity at 0.39 µM,Vero E6 cells,1.03%
same,cytotoxicity at 0.49485 µM,Vero E6 cells,8.84%
same,cytotoxicity at 0.79588 µM,Vero E6 cells,10.2%
same,cytotoxicity at 1.09691 µM,Vero E6 cells,12.2%
same,cytotoxicity at 1.39794 µM,Vero E6 cells,15.3%
same,cytotoxicity at 1.69897 µM,Vero E6 cells,14.6%
"COc1cc(C[C@H]2c3cc(OC)c(OC)c(OC)c3CCN2C)c(Oc2cc3c(cc2OC)-c2c(OC)c(OC)c(OC)c4c2[C@H](C3)N(C)CC4)cc1OC [Methoxyadiantifoline (37), methoxyadiantifoline]",Percentage of Inhibition (%),GX_P2V [1],100.000%
"COc1ccc(C[C@@H]2c3cc(Oc4cc(C[C@@H]5c6cc(OC)c(OC)cc6CCN5C)ccc4O)c(OC)cc3CCN2C)cc1 [Neferine (33), Neferine]",inhibition at 0.193 µM,GX_P2V [1]; [14],92.5%
same,inhibition at 0.495 µM,GX_P2V [1]; [14],91.2%
same,inhibition at 0.796 µM,GX_P2V [1]; [14],91.6%
same,inhibition at 1.097 µM,GX_P2V [1]; [14],100%
same,inhibition at 1.398 µM,GX_P2V [1]; [14],100%
same,inhibition at 1.699 µM,GX_P2V [1]; [14],100%
same,EC50,GX_P2V [1]; [15],0.98 µM
same,EC50,SARS-CoV-2 trVLP [12]; [16],6.24 µM
"CCC(CC)COC(=O)[C@H](C)N[P@](=O)(OC[C@H]1O[C@@](C#N)(c2ccc3c(N)ncnn23)[C@H](O)[C@@H]1O)Oc1ccccc1 [Remdesivir (30), remdesivir, reference compound]",inhibition at 0.193 µM,GX_P2V [1]; [14],91.6%
same,inhibition at 0.495 µM,GX_P2V [1]; [14],41.5%
same,inhibition at 0.796 µM,GX_P2V [1]; [14],90.9%
same,inhibition at 1.097 µM,GX_P2V [1]; [14],99.8%
same,inhibition at 1.398 µM,GX_P2V [1]; [14],100%
same,inhibition at 1.699 µM,GX_P2V [1]; [14],100%
same,EC50,GX_P2V [1]; [15],1.64 µM
same,EC50,"[13]; Severe acute respiratory syndrome coronavirus 2, Vero C1008, read-out: SARS-CoV-2 (Vero E6) EC50",2.19 µM
same,cytotoxicity at 0.796 µM,Vero E6 cells,6.65%
same,cytotoxicity at 1.097 µM,Vero E6 cells,10.7%
same,cytotoxicity at 1.398 µM,Vero E6 cells,9.43%
same,cytotoxicity at 1.699 µM,Vero E6 cells,12.3%
same,EC50,SARS-CoV-2 trVLP [12]; [16],0.11 µM
"COc1ccc2cc1Oc1ccc(cc1)CC1c3cc(c(OC)cc3CCN1C)Oc1c(OC)c(OC)c(O)c3c1C(C2)N(C)CC3 (stereo not drawn) [Thalidezine (35), thalidezine]",inhibition at 0.495 µM,GX_P2V [1]; [14],53.4%
same,inhibition at 0.796 µM,GX_P2V [1]; [14],99.8%
same,inhibition at 1.097 µM,GX_P2V [1]; [14],100%
same,inhibition at 1.398 µM,GX_P2V [1]; [14],100%
same,inhibition at 1.699 µM,GX_P2V [1]; [14],100%
same,EC50,GX_P2V [1]; [15],2.74 µM
same,EC50,SARS-CoV-2 trVLP [12]; [16],4.37 µM
"COc1ccc2cc3[n+](cc2c1OC)CCc1cc2c(cc1-3)OCO2 [berberine (2), berberine, reference compound]",inhibition at 0.49485 µM,GX_P2V [1]; [14],52.1%
same,cytotoxicity at 0.193125 µM,Vero E6 cells,7.94%
same,cytotoxicity at 0.49485 µM,Vero E6 cells,11.2%
isotetrandrine,Percentage of Inhibition (%),GX_P2V [1],100%
same,EC50,GX_P2V [1]; read-out: EC50 GX_P2V,7.43 µM
same,EC50,[2]; read-out: EC50 SARS-CoV-2pseudotypedvirus,7.32 µM
same,EC50,[13]; read-out: SARS-CoV-2 (Vero E6) EC50,4.47 µM
same,EC50,PEDV strain CV777; read-out: EC50 against PEDV,1.67 µM
same,EC50,[3]; read-out: EC50 against SADS-CoV,3.67 µM
same,Percentage of Inhibition (%),[4],83.000% and 63.000%
same,EC50,[4],4.77 µM
same,EC50,[5]; read-out: EC50 against MERS-CoV pseudotyped virus,3.31 µM
same,"Time of addition of anti-GX_P2V activity, Entry",GX_P2V [6],64.671 and 52.909 and 54.392
same,"Time of addition of anti-GX_P2V activity, Full-time",GX_P2V [6],95.271 and 94.111 and 93.848
same,"Time of addition of anti-GX_P2V activity, Post-entry",GX_P2V [6],79.054 and 80.217 and 78.230
same,"Time of addition of anti-SARS-CoV-2 trVLPs activity, Full-time",SARS-CoV-2 trVLP [7],69.205 and 66.812 and 64.054
same,"Time of addition of anti-SARS-CoV-2 trVLPs activity, Post-entry",SARS-CoV-2 trVLP [7],57.048 and 54.613 and 56.353
same,EC50,SARS-CoV-2 trVLP [8]; read-out: EC50 SARS-CoV-2 trVLP,2.82 µM
